Source: PubChem BioAssay (NCI)
Values joined by “and” are separate entries in the source; they are usually repeats but may differ in a detail not shown here. Identical values can stand only once.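 The compound was tested at five concentrations on cells cultured in 96-well plates, with a 48-hour exposure period. GI50 = concentration required for 50% inhibition of growth. TGI is the concentration that stops growth completely.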

How the values were obtained:
Assay in all cases: growth of human tumour cells (NCI), 48 h
[1] = tested on: CAKI-1 renal
[2] = tested on: DU-145 prostate
[3] = tested on: EKVX NSCLC
[4] = tested on: HL-60(TB) leukemia
[5] = tested on: NCI-H23 lung
[6] = tested on: NCI-H522 lung
[7] = tested on: SF-539 CNS
[8] = tested on: SK-MEL-28 melanoma
[9] = tested on: SNB-75 CNS
[10] = tested on: SW-620 colon

Row | Structure (SMILES) | GI50 [1] | TGI [1] | GI50 [2] | TGI [2] | GI50 [3] | TGI [3] | GI50 [4] | TGI [4] | GI50 [5] | TGI [5] | GI50 [6] | TGI [6] | GI50 [7] | TGI [7] | GI50 [8] | TGI [8] | GI50 [9] | TGI [9] | GI50 [10] | TGI [10]
1 | CN(Cc1cnc2nc(N)nc(N)c2n1)c1ccc(C(=O)NC(CCC(=O)O)C(=O)O)cc1 (centres undefined) | 54.4 nM | > 100 µM | 204 nM | > 100 µM | 399 nM | > 100 µM | 74.2 nM | > 100 µM | 0.354 µM | > 100 µM | 721 nM | > 100 µM | 234 nM | > 25.3 µM | 21 µM | > 100 µM | > 100000 nM | > 100 µM | 45.6 nM | > 100 µM
2 | O=c1[nH]c(-c2ccc(C(F)(F)F)cc2)nc2c1CSCC2 | 13700 nM | > 100 µM | > 84500 nM | > 100 µM | > 42100 nM | > 100 µM | > 100000 nM | > 100 µM | 41.9 µM | > 100 µM | > 100000 nM | > 100 µM | > 100000 nM | > 100 µM | 80.3 µM | > 100 µM | 21200 nM | 56.2 µM | > 100000 nM | > 100 µM
3 | O=C(NNS(=O)(=O)c1cc(C(F)(F)F)cc(C(F)(F)F)c1)c1cnn(-c2ccc(Cl)cc2)c1C(F)(F)F | 26200 nM | 57.2 µM | 18600 nM | 44.1 µM | 16000 nM | 43.2 µM | 20700 nM | 45.6 µM | 18.5 µM | 40.8 µM | 18800 nM | 43.1 µM | 18400 nM | 33.5 µM | 20.3 µM | 51.7 µM | 24400 nM | 75.3 µM | 17700 nM | 38.7 µM
4 | CC/C=C\CCC/C=C1/C(=O)C=C[C@@H]1C/C=C\CCCC(=O)O | 3430 nM | 11.9 µM | 11300 nM | 23.8 µM | 4020 nM | 14 µM | 2750 nM | 7.41 µM | 3.37 µM | 13.7 µM | 2020 nM | 4.78 µM | 3520 nM | 12.4 µM | 3.13 µM | 10.6 µM | 18000 nM | 44.9 µM | 4460 nM | 18 µM
5 | COc1ccc(/C=C2\COc3ccc(-c4ccccc4)cc3C2=O)cc1O | 4610 nM | 32.9 µM | 2490 nM | 9.69 µM | 6710 nM | > 100 µM | 2290 nM | > 100 µM | 4.09 µM | 16.6 µM | 2400 nM | 10.5 µM | 2450 nM | 6.38 µM | 1.88 µM | 3.96 µM | 2710 nM | 8.77 µM | 1820 nM | 3.72 µM
6 | Oc1ccc2ccccc2c1N=Nc1ccccc1 |  | > 100 µM |  | > 100 µM | 15500 nM and > 62400 nM | > 100 µM |  | > 100 µM |  | > 100 µM |  | > 100 µM |  | > 100 µM |  | > 100 µM |  | > 100 µM |  | > 100 µM
7 | Oc1ccccc1-n1c(-c2ccccc2)ccc1-c1ccccc1 | 3850 nM | 18.1 µM | 7000 nM | 19.7 µM | 2640 nM | 25.3 µM | 5200 nM | > 100 µM | 4.79 µM | 33.3 µM | 2740 nM | 12.8 µM | 15200 nM | 31.9 µM | 10.8 µM | 31.6 µM | 4460 nM | 21.5 µM | 5490 nM | 20.2 µM
8 | Cn1ccnc1C(=O)/C=C/c1ccc(C(=O)Nc2nc3ccccc3[nH]2)cc1 | 1630 nM | > 25 µM | 920 nM | 4.63 µM | 7730 nM | > 25 µM | 7870 nM | > 25 µM | 3.34 µM | > 25 µM | 8540 nM | > 25 µM | 2700 nM | 18 µM | > 25 µM | > 25 µM | 1000 nM | 15.9 µM | 808 nM | > 25 µM
9 | O=C1c2cc(CCl)sc2C(=O)c2ccsc21 |  | 3.09 µM |  | 0.332 µM |  | 2.74 µM |  | 0.497 µM |  | 0.136 µM |  | 1.12 µM |  | 0.553 µM |  | 0.149 µM |  | 0.38 µM |  | 0.387 µM
10 | C[C@@H]1CC[C@@]2(OC1)O[C@H]1C[C@H]3[C@@H]4CC=C5C[C@@H](O[C@@H]6O[C@H](CO)[C@@H](O[C@@H]7O[C@@H](CO)[C@H](O)[C@H]7O)[C@H](O)[C@H]6O[C@@H]6O[C@@H](C)[C@H](O)[C@@H](O)[C@H]6O)CC[C@]5(C)[C@H]4CC[C@]3(C)[C@H]1[C@@H]2C |  | 2.05 µM | 1170 nM | 2.4 µM | 1620 nM | 3.04 µM | 1440 nM | 2.81 µM | 1.58 µM | 2.97 µM | 1670 nM | 3.23 µM | 758 nM | 2.02 µM | 1.2 µM | 2.44 µM | 1180 nM | 2.46 µM | 577 nM | 1.93 µM
11 | C[Se]C(=O)CC1=C2C=C(F)C=CC2/C(=C\c2ccc(S(C)=O)cc2)C1C (centres undefined) | 25.3 nM | 0.478 µM | 18.7 nM | 1.16 µM | < 11.3 nM | 0.0967 µM | 416 nM | 2.41 µM | 0.065 µM | 1.03 µM | 404 nM | 2.92 µM | 37.1 nM | 0.0923 µM | 0.0343 µM | 0.891 µM | < 10 nM | < 0.036 µM | 273 nM | 3.25 µM
12 | Oc1c(CN2CCCC2)cc(COCc2ccccc2)c2cccnc12 | 260 nM | 14.2 µM | 3400 nM | 16.8 µM | 2010 nM | 15.6 µM | 2520 nM | 8.95 µM | 2.89 µM | 11.6 µM | 2620 nM | 9.97 µM | 2890 nM | 10.1 µM | 3.49 µM | 18.6 µM | 2790 nM | 28.6 µM | 3270 nM | 18.2 µM
13 | C[C@H]1[C@@H](OCC(CO[C@H]2O[C@@H]3O[C@@]4(C)CC[C@H]5[C@H](C)CC[C@@H]([C@H]2C)[C@@]35OO4)=NOCC(=O)O)OC2O[C@@]3(C)CC[C@H]4[C@H](C)CC[C@@H]1[C@@]24OO3 (some centres undefined) | 117 nM | 3.12 µM | 10800 nM | 28.1 µM | 98.2 nM | 22.2 µM | < 10 nM | 13.3 µM | < 0.0283 µM | 18.1 µM | < 15.1 nM | 11.4 µM | 442 nM | 20.9 µM | 0.756 µM | 20.6 µM | 698 nM | 15.4 µM | < 13.7 nM | 18 µM
14 | c1ccc(-c2nc(N3CCNCC3)c3nc(-c4ccccc4)oc3n2)cc1 | 1550 nM | 2.94 µM | 1860 nM | 3.33 µM | 1780 nM | 3.39 µM | 1890 nM | 4.08 µM | 1.76 µM | 3.32 µM | 1810 nM | 3.86 µM | 1720 nM | 3.13 µM | 1.81 µM | 3.29 µM | 1260 nM | 2.52 µM | 1860 nM | 3.57 µM
15 | C=C1C(C)C2C(Cc3ccccc3)NC(=O)C23C(OC(C)=O)/C=C/C(C)(O)CC(C)C/C=C/C3C1O (centres undefined) |  | 3.08 µM |  | > 100 µM |  | > 96.7 µM |  | 36 µM |  | 91.6 µM |  | 45.1 µM |  | 13 µM |  | > 97.7 µM |  | 0.0862 µM |  | > 100 µM
16 | NC(CSC(c1ccccc1)(c1ccccc1)c1ccc2ccccc2c1)C(=O)O (centres undefined) | 99.8 nM | 34.6 µM | 98.6 nM | 0.333 µM | 136 nM | 26.3 µM | 49.3 nM |  | 0.131 µM | 16.4 µM | 39.2 nM | 1.49 µM | 38.4 nM | 3.07 µM | 0.38 µM | 16 µM | 121 nM | 30.6 µM | 38.1 nM | 11.6 µM
17 | COc1ccc([C@H]2O[C@@H](CO)C[C@]2(O)c2ccc(OC)cc2)cc1 | > 100000 nM | > 100 µM | > 100000 nM | > 100 µM | > 100000 nM | > 100 µM | 39300 nM | > 100 µM | > 100 µM | > 100 µM | > 100000 nM | > 100 µM | > 100000 nM | > 100 µM | > 100 µM | > 100 µM | > 100000 nM | > 100 µM | > 100000 nM | > 100 µM
